Earlier results as cited in patent publication US6406894B1, “Process for preparing polyvalent and physiologically degradable carbohydrate-containing polymers by enzymatic glycosylation reactions and the use thereof for preparing carbohydrate building blocks” (Glycorex AB, priority 1992, dated 2002).

Target: T1, E-selectin-IgG (Homo sapiens, UniProt P16581)
T1 construct: soluble fusion proteins formed between the extracytoplasmic domain of E- or P-selectin together with the constant region of a human immunoglobulin of subclass IgG1; made in house; host or cells: COS-7 cells, transient transfection with DEAE-dextran; the culture supernatant was used and captured on plates coated with anti-human IgG
T1 sequence (P16581 with tags, fused parts or gaps): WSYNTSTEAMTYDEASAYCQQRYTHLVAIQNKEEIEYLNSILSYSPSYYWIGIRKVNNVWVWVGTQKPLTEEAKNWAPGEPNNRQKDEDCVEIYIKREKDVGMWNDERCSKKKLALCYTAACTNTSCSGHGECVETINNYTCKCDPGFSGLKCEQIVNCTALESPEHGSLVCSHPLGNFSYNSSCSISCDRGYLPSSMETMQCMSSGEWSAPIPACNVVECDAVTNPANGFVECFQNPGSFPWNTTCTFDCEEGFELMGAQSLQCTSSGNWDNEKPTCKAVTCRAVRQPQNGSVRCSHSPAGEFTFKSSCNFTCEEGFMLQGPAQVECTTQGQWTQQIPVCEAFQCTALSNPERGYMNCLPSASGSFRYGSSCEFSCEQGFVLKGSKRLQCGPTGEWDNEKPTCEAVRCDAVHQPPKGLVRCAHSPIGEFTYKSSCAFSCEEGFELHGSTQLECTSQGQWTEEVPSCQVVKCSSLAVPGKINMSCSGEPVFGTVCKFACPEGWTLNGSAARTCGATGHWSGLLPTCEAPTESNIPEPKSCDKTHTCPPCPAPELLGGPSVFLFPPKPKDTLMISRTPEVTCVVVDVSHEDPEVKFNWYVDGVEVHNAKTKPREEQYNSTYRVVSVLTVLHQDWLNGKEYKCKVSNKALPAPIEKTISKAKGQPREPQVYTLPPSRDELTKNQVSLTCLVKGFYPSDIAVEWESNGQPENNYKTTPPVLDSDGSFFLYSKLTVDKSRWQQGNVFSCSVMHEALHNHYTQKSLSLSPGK
Conditions: comparative value, c.f. EPA 93 119 098.7; read-out: Comparative value: IC50 of HL60 cell adhesion to E-selectin-IgG

IC50: 1000 µM
Compound: CC(=O)NC1C(O)CC(OC2C(O)C(CO)OC(OC3C(CO)OC(OCCCCCCN)C(NC(C)=O)C3OC3OC(C)C(O)C(O)C3O)C2O)(C(=O)O)OC1C(O)C(O)CO (stereo not shown) [Sialyl-Le^x—O(CH2)6NH2]
